Data reported in ChEMBL document CHEMBL6109169, “1,6-Naphthridine Compounds as SMARCA2 Inhibitors for Treating Non-small Cell Lung Cancer” (ACS Med Chem Lett, 2025).
pIC50: −log10 of the molar value.

Molecular target: SWI/SNF-related matrix-associated actin-dependent regulator of chromatin subfamily A member 2 (Homo sapiens, UniProt P51531)
Assay: Inhibition of N-terminal hexa-histidine-tagged truncated human SMARCA2 (470 to 1590 residues) extracted from Sf9 insect cells using poly(dA-dT) linear dsDNA as substrate preincubated for 30 mins followed by substrate/ATP addition measured after 180 mins by ADP-Glo assay
Type: cell-free

SWI/SNF-related matrix-associated actin-dependent regulator of chromatin subfamily A member 2, sequence (P51531 whole entry, the tested form may be a part): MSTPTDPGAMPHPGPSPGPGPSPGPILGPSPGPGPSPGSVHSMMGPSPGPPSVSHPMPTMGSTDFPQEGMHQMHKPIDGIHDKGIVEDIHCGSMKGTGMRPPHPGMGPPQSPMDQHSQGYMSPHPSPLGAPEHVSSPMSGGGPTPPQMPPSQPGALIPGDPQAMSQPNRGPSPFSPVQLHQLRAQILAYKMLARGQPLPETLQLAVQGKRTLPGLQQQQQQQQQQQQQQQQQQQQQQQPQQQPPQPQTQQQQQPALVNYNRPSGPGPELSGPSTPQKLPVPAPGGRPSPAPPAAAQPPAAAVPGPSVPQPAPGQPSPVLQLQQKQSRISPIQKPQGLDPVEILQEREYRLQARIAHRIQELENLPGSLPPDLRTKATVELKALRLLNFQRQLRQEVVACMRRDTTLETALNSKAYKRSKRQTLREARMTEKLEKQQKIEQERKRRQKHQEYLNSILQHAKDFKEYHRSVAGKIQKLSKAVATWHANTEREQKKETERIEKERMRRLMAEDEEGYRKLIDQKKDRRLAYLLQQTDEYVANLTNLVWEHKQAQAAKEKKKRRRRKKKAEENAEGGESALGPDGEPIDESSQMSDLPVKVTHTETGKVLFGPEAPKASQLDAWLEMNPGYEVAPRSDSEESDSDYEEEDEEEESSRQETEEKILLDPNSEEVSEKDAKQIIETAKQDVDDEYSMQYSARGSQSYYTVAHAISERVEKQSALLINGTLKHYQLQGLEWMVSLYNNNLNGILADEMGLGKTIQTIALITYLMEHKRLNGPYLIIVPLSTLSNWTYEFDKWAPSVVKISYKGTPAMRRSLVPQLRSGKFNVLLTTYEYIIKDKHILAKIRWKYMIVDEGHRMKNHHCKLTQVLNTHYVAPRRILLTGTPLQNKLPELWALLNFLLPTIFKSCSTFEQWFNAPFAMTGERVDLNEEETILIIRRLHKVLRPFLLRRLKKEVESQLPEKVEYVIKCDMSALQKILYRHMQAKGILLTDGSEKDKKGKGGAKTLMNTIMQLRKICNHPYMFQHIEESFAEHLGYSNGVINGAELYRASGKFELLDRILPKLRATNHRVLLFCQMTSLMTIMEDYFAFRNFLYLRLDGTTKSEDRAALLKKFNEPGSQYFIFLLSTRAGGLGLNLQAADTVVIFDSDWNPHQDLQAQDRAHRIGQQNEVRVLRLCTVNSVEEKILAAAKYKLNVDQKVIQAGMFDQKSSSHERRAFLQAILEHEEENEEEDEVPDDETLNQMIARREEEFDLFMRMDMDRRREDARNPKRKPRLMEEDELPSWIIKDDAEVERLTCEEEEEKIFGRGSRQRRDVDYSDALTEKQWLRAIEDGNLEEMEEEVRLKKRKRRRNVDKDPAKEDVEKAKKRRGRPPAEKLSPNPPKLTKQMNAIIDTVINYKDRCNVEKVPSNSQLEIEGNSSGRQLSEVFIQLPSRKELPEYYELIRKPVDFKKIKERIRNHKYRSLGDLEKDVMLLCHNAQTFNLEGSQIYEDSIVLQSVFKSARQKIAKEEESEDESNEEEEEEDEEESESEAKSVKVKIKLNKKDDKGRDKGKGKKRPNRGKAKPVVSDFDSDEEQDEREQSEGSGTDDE

Row | pIC50 | Compound
1 | 8.64 | C[C@@H]1CN(c2cccc(-c3ccc4cnc(CNC(=O)c5cc(Cl)c6c(c5)N(S(C)(=O)=O)CC6)cc4n3)n2)C[C@H](C)O1
2 | 8.09 | C=CCS(=O)(=O)N1CCc2ccc(C(=O)NCc3cc4nc(-c5cccc(N6C[C@@H](C)O[C@@H](C)C6)n5)ccc4cn3)cc21
3 | 8.44 | CCS(=O)(=O)N1CCc2ccc(C(=O)NCc3cc4nc(-c5cccc(N6C[C@@H](C)O[C@@H](C)C6)n5)ccc4cn3)cc21
